Measured values: patent US7105663B2, “Derivatives of pyrimido[6,1-a]isoquinolin-4-one” (Rhinopharma Limited, priority 1999, dated 2006)
Blank lines part the entries; values can stand above or below the compound they belong to.

Legend:
[1] = tested on: LPS induced TNF-α release from human monocytes; test: LPS induced TNF-α release from human monocytes; format: cell-based; settings: Monocyte
[2] = tested on: guinea-pig isolated trachea; test: Electrical-induced contraction of guinea-pig isolated trachea (superfused tracheal rings, electrical field stimulation); settings: 10 μM
Method: Superfusion of guinea-pig tracheal rings was performed according to a previously described method (Coleman et al. 1996; Pulmonary Pharmacology, 9, 107–117). Briefly, guinea-pig tracheal preparations were cut into rings then opened by sectioning the ring opposite the smooth muscle and suspended between two platinum electrodes under 1 g tension. The tissues were superfased at a rate of 3.25 ml/min with Krebs-Henseleit solution at 37° C. containing the cyclooxygenase inhibitor, indomethacin (5 μM) and bubbled with 95% O2 and 5% CO2. Tracheal preparations were allowed to equilibrate for 40 min before commencement of electrical stimulation delivered as a 10 s train of square wave pulses at 3 Hz, 0.1 ms duration and 20V (approx. 400 mAmps) generated every 100 sec by means of physiological square wave-stimulator.
The compound of Example 1 was dissolved in DMSO containing Tween 80 (10%) and distilled water (0.01 M), which were then added to the organ bath to give a final concentration of 10 μM. The other compounds were prepared in DMSO and diluted in Krebs-Henseleit solution which yielded a final superfusion concentration of 0.05% DMSO, and superfused at a rate of 0.3 ml/min; contractile responses to electrical field stimulation was recorded on a Macintosh computer using MacLab software.

[3] = tested on: histamine induced bronchospasm; test: Histamine induced bronchospasm in guinea-pigs after dry powder exposure; format: in vivo, guinea-pig; settings: dry powder 2.5 and 25% in lactose, over a 5.5 hour period
Method: 1. The compound of Example 1, 9,10-Dimethoxy-2-(2,4,6-trimethylphenylimino)-3-(N-carbamoyl-2-aminoethyl)-3,4,6,7-tetrahydro-2H-pyrimido[6,1-a]isoquinolin-4-one, was tested in a model of histamine induced bronchospasm. Conscious guinea-pigs were exposed to dry powder (micronised) compound. The drug was blended with lactose so that the final concentration was 0.25, 2.5 and 25%. At various times after exposure to drug the animals were anaesthetised and challenged with varying doses of histamine. Total airway resistance and mean arterial blood pressure were recorded.

[4] = tested on: recruitment of eosinophils to the lungs; test: Antigen induced eosinophilia in the ovalbumin sensitised guinea-pig; format: in vivo
Method: 3. […] Further experiments were carried out to characterise the duration of action in this model.

PDE3 (human platelet) = target: T1, PDE3 (human platelet) (Homo sapiens, UniProt Q14432); test: Inhibition of phosphodiesterase (PDE) type 3 isoenzyme; format: biochemical
T1 construct: (human platelet); from tissue; host or cells: human platelets

[5] = Intravenous administration to urethane anaesthetised guinea-pigs, mean arterial blood pressure; format: in vivo, guinea-pig; settings: intravenous 1 to 100 μg/kg, evidence that the compound had come out of solution
Method: 2. […] The compound was dissolved in DMSO then diluted with saline (there was evidence that the compound had come out of solution).

PDE4 (human neutrophil) = test: Inhibition of phosphodiesterase (PDE) type 4 isoenzyme; format: biochemical
[6] = tested on: human mononuclear cells stimulated by PHA; test: Proliferation of human mononuclear cells stimulated by PHA ([3H]-thymidine); format: cell-based
Method: Normal healthy volunteers underwent phlebotomy and 25 ml of blood was collected. Mononuclear cells were separated and purified according to the method of Banner et al (Banner et al Br. J. Pharmacol. 116 3169–3174 (1995)). Human peripheral mononuclear cells (100,000 per well) were stimulated for 24 h with phytohaemagglutinin (PHA, 2 μ/ml) in the absence or presence of the compound of Example 1 (0.001–100 μM) at 37° C. in a 95% air, 5% CO2 atmosphere. Twenty four hours later, [3H]-thymidine (0.1 μCi) was added to each well and the cells were incubated for a further 24 h period. Cells were then harvested onto glass fibre filters using a cell harvester (ICN Flow, Buckinghamshire) and counted in a scintillation counter.

T1 sequence (Q14432 whole entry): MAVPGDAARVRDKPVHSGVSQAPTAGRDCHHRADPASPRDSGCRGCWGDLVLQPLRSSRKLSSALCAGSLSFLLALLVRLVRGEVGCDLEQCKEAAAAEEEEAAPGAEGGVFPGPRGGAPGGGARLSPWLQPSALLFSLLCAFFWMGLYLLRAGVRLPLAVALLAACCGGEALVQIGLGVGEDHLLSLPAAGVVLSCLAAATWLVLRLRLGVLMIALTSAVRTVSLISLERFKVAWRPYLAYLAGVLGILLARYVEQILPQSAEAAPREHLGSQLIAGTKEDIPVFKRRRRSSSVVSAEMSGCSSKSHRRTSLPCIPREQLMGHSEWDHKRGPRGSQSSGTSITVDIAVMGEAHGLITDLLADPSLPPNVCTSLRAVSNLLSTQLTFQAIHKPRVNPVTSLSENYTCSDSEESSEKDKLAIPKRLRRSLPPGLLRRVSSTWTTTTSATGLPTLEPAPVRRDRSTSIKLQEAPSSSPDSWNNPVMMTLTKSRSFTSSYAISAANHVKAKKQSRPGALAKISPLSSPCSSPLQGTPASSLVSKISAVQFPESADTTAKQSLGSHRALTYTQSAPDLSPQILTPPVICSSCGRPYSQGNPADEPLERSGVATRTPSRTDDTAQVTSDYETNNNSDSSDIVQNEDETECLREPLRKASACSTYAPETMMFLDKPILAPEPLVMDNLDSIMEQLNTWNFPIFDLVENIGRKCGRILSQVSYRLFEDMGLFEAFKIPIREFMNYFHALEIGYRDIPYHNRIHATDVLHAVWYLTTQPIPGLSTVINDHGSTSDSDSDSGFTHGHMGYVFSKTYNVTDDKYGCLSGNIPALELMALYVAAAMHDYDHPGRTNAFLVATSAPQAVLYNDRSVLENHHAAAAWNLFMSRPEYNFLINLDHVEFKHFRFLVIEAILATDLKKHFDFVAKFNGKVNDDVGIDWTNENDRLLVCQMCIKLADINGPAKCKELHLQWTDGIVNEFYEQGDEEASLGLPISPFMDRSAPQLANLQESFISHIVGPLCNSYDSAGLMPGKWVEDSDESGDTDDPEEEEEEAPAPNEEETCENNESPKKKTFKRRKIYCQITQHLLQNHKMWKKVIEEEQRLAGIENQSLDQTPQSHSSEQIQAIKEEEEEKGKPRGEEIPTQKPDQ

IC50 ([1]; n = 6): 92 nM
Compound: COc1ccc([C@H](Cc2ccncc2)c2ccccc2)cc1OC1CCCC1 [CDP 840]

Compound: COc1cc2c(cc1OC)-c1c/c(=N\c3ccccc3C)n(CCNC(N)=O)c(=O)n1CC2 [Example 10, 3-(N-Carbamoyl-2-aminoethyl)-9,10-dimethoxy-2-(2-methylphenylimino)-3,4,6,7-tetrahydro-2H-pyrimido[6,1-a]isoquinolin-4-one]
effect on contractile responses (electrical-induced contraction of guinea-pig isolated trachea) [2]: inhibit the contractile responses with a long duration of action

Compound: CN/C(=N\C#N)NCCn1c(=O)n2c(c/c1=N\c1c(C)cc(C)cc1C)-c1cc(OC)c(OC)cc1CC2 [Example 13, 3-[N-(N′-Cyano-N″-methyl)-2-guanidinoethyl]-9,10-dimethoxy-2-(2,4,6-trimethyl-phenylimino)-3,4,6,7-tetrahydro-2H-pyrimido[6,1-a]isoquinolin-4-one]
effect on contractile responses (electrical-induced contraction of guinea-pig isolated trachea) [2]: inhibit the contractile responses with a long duration of action

Compound: COc1cc2c(cc1OC)-c1c/c(=N\c3c(C)cc(C)cc3C)n(CCNC(=O)NC3CCCCC3)c(=O)n1CC2 [Example 9]
effect on contractile responses (electrical-induced contraction of guinea-pig isolated trachea) [2]: inhibit the contractile responses with a long duration of action

Compound: COc1cc2c(cc1OC)-c1c/c(=N\c3c(C(C)C)cccc3C(C)C)n(CCNC(N)=O)c(=O)n1CC2 [Example 11]
effect on contractile responses (electrical-induced contraction of guinea-pig isolated trachea) [2]: inhibit the contractile responses with a long duration of action

IC50 ([1]; n = 6): 7.5 nM
IC50 (PDE3 (human platelet)): 0.43 nM
IC50 (PDE4 (human neutrophil)): 1480 nM
Compound: COc1cc2c(cc1OC)-c1c/c(=N\c3c(C)cc(C)cc3C)n(CCNC(N)=O)c(=O)n1CC2 [Example 1, 9,10-Dimethoxy-2-(2,4,6-trimethylphenylimino)3-(N-carbamoyl-2-aminoethyl)-3,4,6,7-tetrahydro-2H-pyrimido[6,1-a]isoquinolin-4-one]
protection against histamine induced bronchospasm ([3]; conscious guinea-pigs): significant protection
mean blood pressure ([3]; guinea-pigs): reduced mean blood pressure
recruitment of eosinophils to the lungs following antigen challenge ([4]; 10 mg/kg orally 1 hour prior to antigen challenge): significantly inhibited
recruitment of eosinophils to the lungs following antigen challenge ([4]; dry powder (25%) 1.5 hours prior to antigen challenge, measured 24 hours after challenge): significantly inhibited
recruitment of eosinophils to the lungs following antigen challenge ([4]; dry powder (25%) 5.5 hours before antigen challenge): failed to significantly inhibit
effect on contractile responses (electrical-induced contraction of guinea-pig isolated trachea) [2]: inhibit the contractile responses with a long duration of action
mean arterial blood pressure [5]: dose dependant reduction
proliferation of human mononuclear cells stimulated by PHA ([6]; 0.001–100 μM): significantly inhibited
IC50 ([6]; Homo sapiens, 95% confidence limits in brackets, n=6, read-out: IC50 against proliferation of human mononuclear cells stimulated with PHA): 460 nM

IC50 [1]: > 100000 nM
Compound: CN/C(=N\c1ccc(C2=NNC(=O)CC2C)cc1)NC#N (stereo not shown) [Siguazodan]

Compound: COc1cc2c(cc1OC)-c1c/c(=N\c3c(C)cc(C)cc3C)n(CCN/C(N)=N/[N+](=O)[O-])c(=O)n1CC2 [Example 8, 9,10-Dimethoxy-3-[N-(N′-nitro)-2-guanidinoethyl]-2-(2,4,6-trimethylphenylimino)-3,4,6,7-tetrahydro-2H-pyrimido[6,1-a]isoquinolin-4-one]
effect on contractile responses (electrical-induced contraction of guinea-pig isolated trachea) [2]: inhibit the contractile responses with a long duration of action
